The values that follow come from PubChem BioAssay AID1794806 (Yongcheng Song lab at Baylor College of Medicine, 2022).

Broadly, the EC50 is the concentration that produces a half-maximal response.

SMILES strings stand for the structures. The source made the active and inactive calls.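 Rule for the calls: active = EC50 under 50 µM in a live-cell viability test; inactive = the rest.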 Some results are limits rather than exact numbers.

The test system of the test is HeLa proliferation, XTT absorbance. The test can be described thus: HeLa cell growth inhibition, dose response, selectivity assay for AHD inhibitor project, XTT absorbance (AID 1794806).
`O=C(NCC1CCNCC1)c1coc2cc(-c3ccc(N4CCCCC4)cc3)ccc12`: the EC50 is 50 µM. On to `NC(=O)c1ccc(-c2ccc3cc(C(=O)NCC4CCNCC4)sc3c2)cc1`, for which the EC50 is > 51 µM (inactive). In the case of `O=C(NCC1CCNCC1)c1cc2cc(-c3ccc(N4CCCCC4)cc3)ccc2s1`, the concentration giving a half-maximal response (EC50) is 25 µM. Regarding `O=C(NCC1CCNCC1)c1cc2ccc(-c3ccc(N4CCCC4)cc3)cc2s1`, the EC50 is 50 µM.

For `O=C(NCC1CCNCC1)c1c[nH]c2cc(-c3ccc(N4CCCCC4)cc3)ccc12`, the EC50 is > 51 µM (inactive). On to `O=C(NCC1CCNCC1)c1cc2ccc(-c3ccc(N4CCCCC4)cc3)cc2s1`, for which the EC50 was 50 µM. For `O=C(NCC1CCNCC1)c1cc2cc(-c3cn[nH]c3)ccc2[nH]1` the value was > 51 µM (inactive). Turning to `O=C(NCC1CCNCC1)c1cc2cc(-c3ccc(N4CCCCC4)cc3)ccc2[nH]1`, the EC50 is > 51 µM (inactive). For `O=C(NCC1CCNCC1)c1c[nH]c2cc(-c3ccc(N4CCCC4)cc3)ccc12` the value was > 51 µM (inactive). Then `NCc1ccc(-c2ccc3cc(C(=O)NCC4CCNCC4)oc3c2)cc1`, with > 51 µM (inactive).
